In patent publication US12709731B2, “Method of producing biological material” (NTT, Inc., priority 2021, dated 2026):

Experiments:
Format in all cases: cell-based
[1] = system: Cyanidioschyzon merolae; test: Test 1: color of microorganism-containing liquid after suspension culture with regulator; conditions: for contribution to a reduction of light-harvesting pigments: added to MA2 culture medium, 18 hours culture, judged from color in FIG. 3; for color of the microorganism-containing liquid after cultivation (FIG. 3): MA2 culture medium, light condition, 18 hours after addition
Description: Unicellular red algae were cultured in suspension under a light condition and a regulator was added thereto. An MA2 culture medium was used as a culture medium. Cyanidioschyzon merolae were used as unicellular red algae. Dimethyl 2-oxoglutarate was used as the regulator. Then, after the regulator was added, the culture was further continued for 18 hours.
The above-mentioned cultivation was carried out for each case where the final concentrations of dimethyl 2-oxoglutarate were adjusted to 10, 20, 40 and 80 mmmol/L (=mM). In addition, cultivation was also carried out in a similar manner except that the addition of dimethyl 2-oxoglutarate was omitted.
Thereafter, each of microorganism-containing liquids containing unicellular red algae and the culture medium was imaged.
In addition, cultivation was carried out in a similar manner except that 2-oxoglutaric acid was used instead of using dimethyl 2-oxoglutarate. Thereafter, each of dispersion microorganism-containing liquids containing unicellular red algae and the culture medium was imaged.
FIG. 3 is an image obtained by imaging the microorganism-containing liquids after cultivation. In FIG. 3, “2-OG” and “dimethyl 2-OG” represent 2-oxoglutaric acid and dimethyl 2-oxoglutarate, respectively.

[2] = system: Cyanidioschyzon merolae; test: Test 3: amount of phycocyanin in microorganism-containing liquid after addition of regulator; conditions: final concentration 2 mmol/L; every culture time as in test 2 (0, 6, 24 hours); average of three independent tests; control increased
Description: Cultivation was carried out in a similar manner to that in the test 2 and the amounts of phycocyanin contained in the microorganism-containing liquids were determined in every culture time. FIG. 5 is a graph showing an example of the effect of the addition of a regulator on the amount of phycocyanin. […] Furthermore, “dimethyl 2-OG” indicates the results obtained for unicellular red algae cultured by adding dimethyl 2-oxoglutarate to the culture medium as a regulator.

[3] = system: Cyanidioschyzon merolae; test: Test 2: amount of chlorophyll a in microorganism-containing liquid after addition of regulator; conditions: final concentration 2 mmol/L; immediately before, 6 hours and 24 hours after addition; average of three independent tests; control increased
Description: Unicellular red algae were cultured in suspension under a light condition and a regulator was added thereto. An MA2 culture medium was used as a culture medium. Cyanidioschyzon merolae were used as unicellular red algae. Dimethyl 2-oxoglutarate was used as the regulator. The regulator was added so that the final concentration of dimethyl 2-oxoglutarate was 2 mmol/L. After the regulator was added, the cultivation was further continued. Then, the amounts of chlorophyll a contained in the microorganism-containing liquids were determined immediately before the regulator was added, 6 hours after the regulator was added, and 24 hours after the regulator was added. In addition, in parallel with the cultivation, cultivation was carried out as described above in a similar manner except that no regulator was added. The amount of chlorophyll a contained in the microorganism-containing liquid was also determined in the same manner as described above. FIG. 4 is a graph showing an example of the effect of the addition of the regulator on the amounts of chlorophyll a. […] Furthermore, “dimethyl 2-OG” indicates the results obtained for unicellular red algae cultured by adding dimethyl 2-oxoglutarate to the culture medium as a regulator.

[4] = final concentrations 10, 20, 40 and 80 mmmol/L (=mM), compared with no regulator added

SMILES | contribution to a reduction of light-harvesting pigments [1] | color of the microorganism-containing liquid after cultivation (FIG. 3) [1, 4] | amount of phycocyanin contained in the microorganism-containing liquid (FIG. 5) [2] | color of the microorganism-containing liquid after cultivation (FIG. 3) ([1]; final concentration 20 mmol/L or higher) | amount of chlorophyll a contained in the microorganism-containing liquid (FIG. 4) [3]
O=C(O)CCC(=O)C(=O)O [2-oxoglutaric acid, 2-Oxoglutaric acid, reference compound] | little contributed | the same color as that in the case with no regulator added | – | – | –
COC(=O)CCC(=O)C(=O)OC [dimethyl 2-oxoglutarate] | greatly contributes | lighter than those of the microorganism-containing liquids with no regulator added | decreased according to the culture time | substantially colorless | decreased according to the culture time
